This series can be described thus: ring-closing metathesis (C=C bond) of side-chain olefins, second-generation Grubbs catalyst 20 mol %, under argon, 2 h. The following applies: CH2Cl2, 20.0 mM, 25.0 °C.

In turn, `COC(=O)[C@@H]1COCC=CCO[C@@H]2C[C@@H](C(=O)N1)N(C(=O)OC(C)(C)C)C2` came in with a ring closure, isolated yield (from C=CCOC[C@H](NC(=O)[C@@H]1C[C@@H](OCC=C)CN1C(=O)OC(C)(C)C)C(=O)OC, 13-membered ring) of 0%.

In turn, `COC(=O)C1(NC(=O)[C@H](CC(C)C)NC(=O)[C@H](CC(C)C)NC(=O)C2(NC(=O)[C@H](CC(C)C)NC(=O)[C@H](CC(C)C)NC(=O)[C@@H]3COCCCC=CCO[C@H]4C[C@@H](C(=O)N3)N(C(=O)OC(C)(C)C)C4)CCCC2)CCCC1` yielded a ring closure, isolated yield (from C=CCCCOC[C@H](NC(=O)[C@@H]1C[C@H](OCC=C)CN1C(=O)OC(C)(C)C)C(=O)N[C@@H](CC(C)C)C(=O)N[C@@H](CC(C)C)C(=O)NC1(C(=O)N[C@@H](CC(C)C)C(=O)N[C@@H](CC(C)C)C(=O)NC2(C(=O)OC)CCCC2)CCCC1, 15-membered ring, 2.0 h) of 93%.

The molecule `COC(=O)C1(NC(=O)[C@H](CC(C)C)NC(=O)[C@H](CC(C)C)NC(=O)C2(NC(=O)[C@H](CC(C)C)NC(=O)[C@H](CC(C)C)NC(=O)[C@@H]3COCC=CCO[C@H]4C[C@@H](C(=O)N3)N(C(=O)OC(C)(C)C)C4)CCCC2)CCCC1` came in with a ring closure, isolated yield (from C=CCOC[C@H](NC(=O)[C@@H]1C[C@H](OCC=C)CN1C(=O)OC(C)(C)C)C(=O)N[C@@H](CC(C)C)C(=O)N[C@@H](CC(C)C)C(=O)NC1(C(=O)N[C@@H](CC(C)C)C(=O)N[C@@H](CC(C)C)C(=O)NC2(C(=O)OC)CCCC2)CCCC1, 13-membered ring) of 0%.

Turning to `COC(=O)C1(NC(=O)[C@H](CC(C)C)NC(=O)[C@H](CC(C)C)NC(=O)[C@@H]2COCCCC=CC[C@]3(CCCN3C(=O)OCc3ccccc3)C(=O)N[C@@H](CC(C)C)C(=O)N[C@@H](CC(C)C)C(=O)N2)CCCC1`, for the setting “from C=CCCCOC[C@H](NC(=O)[C@H](CC(C)C)NC(=O)[C@H](CC(C)C)NC(=O)[C@]1(CC=C)CCCN1C(=O)OCc1ccccc1)C(=O)N[C@@H](CC(C)C)C(=O)N[C@@H](CC(C)C)C(=O)NC1(C(=O)OC)CCCC1, 18-membered ring, 2.0 h”, the ring closure, isolated yield is 96%.

On to `COC(=O)[C@@H]1COCC=CCO[C@H]2C[C@@H](C(=O)N1)N(C(=O)OC(C)(C)C)C2` [Boc-cis-Hyp(OAllyl)-Ser(OAllyl)-OMe (cis-4-hydroxy-L-Pro)], for which the ring closure, isolated yield (from C=CCOC[C@H](NC(=O)[C@@H]1C[C@H](OCC=C)CN1C(=O)OC(C)(C)C)C(=O)OC, 13-membered ring, 2.0 h) turned out to be 55%.
